Test results reported in patent US4289776A, “Xanthine derivatives” (Hoechst Aktiengesellschaft, priority 1973, dated 1981).
≈ marks a conversion by molar mass, not a printed value. Read-outs that look alike come from different tables or passages of the source.

Tests used:
[1] = Toxicity in the mouse (LD50); conditions: in vivo
Description: The toxicity was determined as LD50 --range or as LD50 according to Litchfield and Wilcoxon ("J. Pharmacol. exp. Ther." 97 (1949), page 399) in the mouse.

[2] = system: bronchospasm against histamine; assay: Broncholytic effect at the narcotized guinea-pig, bronchospasm by histamine; format: in vivo; conditions: for change in vivo at 10 mg/kg: 10 mg/kg i.v.
Description: (§1) 2. Broncholytic effect at the narcotized guinea-pig
(§2) This test was performed according to H. Konsett and R. Rossler ("Archiv exp. Path. Pharmak." vol. 195 (1940), page 71).

muscular blood perfusion = assay: Muscular blood perfusion by fluvography at the cat (i.v.); format: in vivo
Description: (§3) Animal tests were carried out with various oxoalkylxanthine derivatives, in which the toxicity in the mouse, the increase of cerebral and muscular blood perfusion at the cat and the fibrinolytic effect in vitro in the Hanging-Clot-test were measured. Furthermore the broncholytic effect of various compounds was tested.
(§4) 1. Cerebral and muscular blood perfusion by fluvography
(§5) These tests were performed at the cat according to K. Popendiker, I. Boksay and V. Bollmann ("Arzneimittel Forschung" vol. 21 (1971), page 1160).
(§6) The values obtained in the mentioned test 1 are given as Δλ and as half-life values in Table 2 and the results of tests 2 to 5 are enumerated in Table 3. In Table 2 Δλ is the change of blood perfusion.

cerebral blood perfusion = assay: Cerebral blood perfusion by fluvography at the cat (i.v.); format: in vivo
Description: as §3, §4, §5, §6

[3] = system: bronchospasm against acetylcholine; assay: Broncholytic effect at the narcotized guinea-pig, bronchospasm by acetylcholine; format: in vivo; conditions: Cavia porcellus, iv, 2 min, 2 min. i.p.; for change in vivo at 10 mg/kg: 10 mg/kg i.v.
Description: as §1, §2

[4] = system: bronchospasm against acrotonine; assay: Broncholytic effect at the narcotized guinea-pig, bronchospasm by acrotonine (so in the source); format: in vivo; conditions: 2 min. i.p.
Description: as §1, §2

Solubility = format: physicochemical
human blood = assay: Fibrinolytic effect in vitro, Hanging-Clot-test; format: biochemical; conditions: for Minimum concentration for complete lysis: human blood
Description: This effect was measured by the Hanging-Clot-test according to K. N. von Kaulla ("Journ. med. Chem." vol. 8 (1965), page 164) in using human blood. The incubation time was 24 or 48 hours.

isolated trancheal chain = assay: Broncholytic effect at the isolated tracheal chain (isoprenaline reaction)
Description: 3. Broncholytic effect at the isolated trancheal chain
This test was performed according to J. C. Castillo and E. J. de Beer ("J. Pharm. Ther." vol. 90 (1947), page 104).

[5] = ip, read-out: Toxicity (LD50-range or LD50)
[6] = Cavia porcellus, iv, 2 min, 2 min. i.p.

## CCCCCCCCCCn1cnc2c1c(=O)n(CCCCC(C)=O)c(=O)n2C [Sample 6, 1-(5-oxohexyl)-3-methyl-7-(n-decyl)-xanthine]
[1]; [5]
  LD50: 500 mg/kg
[2]; Cavia porcellus, iv, 2 min, 2 min. i.p., sample in propanediol
  change in vivo at 10 mg/kg: -40%
Muscular blood perfusion; 1 mg/kg i.v.
  Muscular blood perfusion Δλ (change of blood perfusion): 0
Muscular blood perfusion; 3 mg/kg i.v.
  Muscular blood perfusion half-life: 4.00 min
  Muscular blood perfusion Δλ (change of blood perfusion): +0.30
Cerebral blood perfusion; 1 mg/kg i.v.
  Cerebral blood perfusion half-life: 0.2 min
  Cerebral blood perfusion Δλ (change of blood perfusion): +1.40
Cerebral blood perfusion; 3 mg/kg i.v.
  Cerebral blood perfusion half-life: 0.5 min
  Cerebral blood perfusion Δλ (change of blood perfusion): +2.8
[3]; sample in propanediol
  change in vivo at 10 mg/kg: -50%
[4]; 10 mg/kg i.v., sample in propanediol, sample 1: Longtime effect (footnote 1)
  Change of the bronchospasm in % against acrotonine: -50%

## CCCCCCn1cnc2c1c(=O)n(CCCCC(C)=O)c(=O)n2C [Example 2, 1-(5-Oxohexyl)-3-methyl-7-n-hexyl-xanthine]
Solubility
  Solubility in dimethyl sulphoxide: over 10%
  Solubility in dimethylformamide: over 10%
  Solubility in ethanol: over 10%
  Solubility in water (in words): only sparingly soluble in water

## CCCn1cnc2c1c(=O)n(CCCCC(C)=O)c(=O)n2C [Sample 4, 1-(5-Oxohexyl)-3-methyl-7-propyl-xanthine]
Solubility
  Solubility in dimethyl sulphoxide: over 10%
  Solubility in ethanol: over 10%
Solubility; water, 25° C.
  solubility: ~32 mg/mL (≈ 104 mM)
[1]; iv, read-out: Toxicity (LD50)
  LD50: 107 mg/kg
[1]; po, per os, read-out: Toxicity (LD50)
  LD50: 860 mg/kg
[2]; Cavia porcellus, iv, 2 min, 3 mg/kg i.v., 2 min. i.p.
  change in vivo at 3 mg/kg: -75%
[2]; [6]
  change in vivo at 10 mg/kg: -86%
[2]; guinea pig, in vivo
  Broncholytic effect against histamine compared with sample 8: improved broncholytic effect against histamine
Human blood
  Fibrinolytic effect relative to comparison sample 8: two times as strong
Human blood; 24 hours incubation
  Minimum concentration for complete lysis: 50 mmol
Human blood; 48 hours incubation (bracket)
  Minimum concentration for complete lysis: 25 mmol
Muscular blood perfusion; 1 mg/kg i.v.
  Muscular blood perfusion half-life: 3.70 min
  Muscular blood perfusion Δλ (change of blood perfusion): +0.13
Muscular blood perfusion; 2 mg/kg i.v.
  Muscular blood perfusion half-life: 0.80 min
  Muscular blood perfusion Δλ (change of blood perfusion): +0.07
Muscular blood perfusion; 5 mg/kg i.v.
  Muscular blood perfusion half-life: 3.70 min
  Muscular blood perfusion Δλ (change of blood perfusion): +0.08
Muscular blood perfusion; i.v., corresponding dosages
  Muscular blood perfusion compared with sample 8 (in words): stronger muscular blood perfusion
Cerebral blood perfusion; 1 mg/kg i.v.
  Cerebral blood perfusion half-life: 4.0 min
  Cerebral blood perfusion Δλ (change of blood perfusion): +4.33
Cerebral blood perfusion; 2 mg/kg i.v.
  Cerebral blood perfusion half-life: 5.8 min
  Cerebral blood perfusion Δλ (change of blood perfusion): +6.33
Cerebral blood perfusion; 5 mg/kg i.v.
  Cerebral blood perfusion half-life: 14.7 min
  Cerebral blood perfusion Δλ (change of blood perfusion): +13.00
Cerebral blood perfusion; i.v.
  Cerebral blood perfusion compared with sample 8 (in words): longer cerebral blood perfusion
Cerebral blood perfusion; i.v., all dose values, corresponding dosages
  Cerebral blood perfusion relative to comparison sample 8: more than 10 times
[3]; 3 mg/kg i.v.
  change in vivo at 3 mg/kg: -40%
[3]
  change in vivo at 10 mg/kg: -75%
Isolated trancheal chain; concentration 3 × 10^-5
  Inhibition of isoprenaline reaction in %: 94%
Isolated trancheal chain; concentration 3 × 10^-6
  Inhibition of isoprenaline reaction in %: 2%
Isolated trancheal chain; concentration 10^-4
  Inhibition of isoprenaline reaction in %: 100%
Isolated trancheal chain; concentration 10^-5
  Inhibition of isoprenaline reaction in %: 20%
[4]; 3 mg/kg i.v.
  Change of the bronchospasm in % against acrotonine: -83%
[4]; 10 mg/kg i.v.
  Change of the bronchospasm in % against acrotonine: -93%

## CCCCn1cnc2c1c(=O)n(CCCCC(C)=O)c(=O)n2C [Sample 5, 1-(5-Oxohexyl)-3-methyl-7-(n-butyl)-xanthine]
[1]; [5]
  LD50: 250 to 500 mg/kg
[2]; Cavia porcellus, iv, 2 min, 5 mg/kg i.v., 2 min. i.p.
  change in vivo at 5 mg/kg: -42%
[2]; [6]
  change in vivo at 10 mg/kg: -69%
Muscular blood perfusion; 1 mg/kg i.v.
  Muscular blood perfusion Δλ (change of blood perfusion): 0
Muscular blood perfusion; 2 mg/kg i.v.
  Muscular blood perfusion Δλ (change of blood perfusion): 0
Muscular blood perfusion; 5 mg/kg i.v.
  Muscular blood perfusion Δλ (change of blood perfusion): 0
Cerebral blood perfusion; 1 mg/kg i.v.
  Cerebral blood perfusion half-life: 1.3 min
  Cerebral blood perfusion relative to comparison sample 8: nearly six times higher
  Cerebral blood perfusion Δλ (change of blood perfusion): +2.50
Cerebral blood perfusion; 2 mg/kg i.v.
  Cerebral blood perfusion half-life: 1.3 min
  Cerebral blood perfusion Δλ (change of blood perfusion): +2.55
Cerebral blood perfusion; 5 mg/kg i.v.
  Cerebral blood perfusion half-life: 3.0 min
  Cerebral blood perfusion relative to comparison sample 8: about three times higher
  Cerebral blood perfusion Δλ (change of blood perfusion): +2.40
[3]; 5 mg/kg i.v.
  change in vivo at 5 mg/kg: -100%
[3]
  change in vivo at 10 mg/kg: -100%
[4]; 5 mg/kg i.v.
  Change of the bronchospasm in % against acrotonine: -70%
[4]; 10 mg/kg i.v.
  Change of the bronchospasm in % against acrotonine: -100%
